Literature values, collected in US20040235766A1 (priority 2001, published 2004).

Target: DnaX protein (Escherichia coli, UniProt P06710)
Conditions: read-out: dissociation constant

DnaX protein, sequence (P06710 whole entry): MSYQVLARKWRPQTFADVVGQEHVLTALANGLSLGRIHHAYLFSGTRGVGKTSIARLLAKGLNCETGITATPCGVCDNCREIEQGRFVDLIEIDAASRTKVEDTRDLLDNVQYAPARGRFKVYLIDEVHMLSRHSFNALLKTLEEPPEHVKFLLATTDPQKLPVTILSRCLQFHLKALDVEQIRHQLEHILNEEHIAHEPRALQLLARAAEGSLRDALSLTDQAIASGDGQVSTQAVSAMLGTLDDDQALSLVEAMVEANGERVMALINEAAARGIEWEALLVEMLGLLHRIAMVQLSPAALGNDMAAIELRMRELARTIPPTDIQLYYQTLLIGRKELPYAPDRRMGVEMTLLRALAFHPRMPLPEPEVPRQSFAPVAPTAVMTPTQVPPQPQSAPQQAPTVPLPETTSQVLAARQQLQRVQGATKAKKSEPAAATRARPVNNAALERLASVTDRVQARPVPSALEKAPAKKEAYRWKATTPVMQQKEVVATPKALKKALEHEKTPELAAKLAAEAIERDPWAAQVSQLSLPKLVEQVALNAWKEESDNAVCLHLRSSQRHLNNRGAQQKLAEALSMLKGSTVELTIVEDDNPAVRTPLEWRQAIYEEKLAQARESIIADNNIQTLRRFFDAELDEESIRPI

Q: For Nc1ncnc2c1ncn2[C@@H]1O[C@H](COP(=O)(O)OP(=O)(O)OP(=O)(O)O)[C@@H](O)[C@H]1O [ATP], which Kd is on record?
A: ~2 µM
